Results reported in publication PMC7413516, “Antidepressant-like activity and safety profile evaluation of 1H-imidazo[2,1-f]purine-2,4(3H,8H)-dione derivatives as 5-HT1A receptor partial agonists” (PLoS ONE, 2020).
Where “and” joins values, the source holds several entries; their conditions need not be identical. Equal entries are not always repeated.

Key:
Type in all cases: in vivo, Swiss albino mice
mice [1] = test: Spontaneous activity monitoring (RFID TraffiCage, 18 h); conditions: for Mean counts, spontaneous activity: 1.25 mg/kg
Description: (§1) The Swiss albino mice were used in the experiment. AZ-853 and AZ-861 were injected once daily for 16 consecutive days. On the 1st and 15th day the administration of the compounds, 18-h spontaneous animal activity was registered (see below). FST, as described earlier, was performed on the 14th day just before the next treatment. To ensure that the effects observed in FST are not the result of increased motility of animals, on the 13th day, just before the next administration, the locomotor activity was measured as described earlier, from 2 to 6 min after test start, i.e. in the period identical to the duration of FST. Blood and organ collection was performed on the 17th day at 24 h after the last dose and fasting.
The spontaneous activity of the mice was measured on the 1st and 15th day of the treatment with a special, innovative radiofrequency identification system (RFID-system)—TraffiCage (TSE-Systems, Germany). The test was conducted according to the method described in the literature. The animals had the transmitter (RFID) subcutaneously implanted, which tracked the time they spent in different areas of the cage. The data obtained were then grouped in a special computer program.

mice [2] = test: Locomotor activity (Opto M3 activity monitor) in mice; conditions: for Number of movements (individual animals): raw data
Source text: The investigated compounds AZ-853 (8-(4-(4-(2-fluorophenyl)piperazin-1-yl)butyl)-1,3-dimethyl-1H-imidazo[2,1-f]purine-2,4(3H,8H)-dione and AZ-861 (1,3-dimethyl-8-(4-(4-(3-(trifluoromethyl)phenyl)piperazin-1-yl)butyl)-1H-imidazo[2,1-f]purine-2,4(3H,8H)-dione) were synthesised in the Department of Medicinal Chemistry, Faculty of Pharmacy, Jagiellonian University, and their synthesis was described earlier. AZ-853 and AZ-861 were suspended in 1% aqueous solution of Tween 80, and WAY-100635 (Sigma, Germany) was dissolved in 0.9% saline. In acute experiments, the selected compounds AZ-853 (0.156–2.5 mg/kg) and AZ-861 (0.625–2.5 mg/kg) were injected i.p. once 60 min before tests, whereas WAY-100635 (0.3 mg/kg) was administered subcutaneously (s.c.) 45 min before the test. […] In chronic experiments, AZ-853 and AZ-861 were administered i.p. once a day (between 9:00 AM and 10:00 AM) for 16 consecutive days at the minimum active doses selected from FST experiment, i.e. 0.625 and 1.25 mg/kg, respectively. […]. The control groups received 1% aqueous solution of Tween 80.
Locomotor activity was recorded with an Opto M3 multi-channel activity monitor (MultiDevice Software v.1.3, Columbus Instruments). The Swiss albino mice were individually placed in plastic cages (220 × 120 × 130 mm) for 30 min habituation period, and then the crossings of each channel (ambulation) were counted from […] to 6 min, that is the time equal to the observation period in FST. The cages were cleaned up with 70% ethanol after each mouse.
as §1, with “[…].” for “On the 1st and 15th day the administration of the compounds, 18-h spontaneous animal activity was registered (see below).”

[3] = Plasma ALAT and γ-GTP activity after repeated administration; conditions: mice, AZ-853 0.625, AZ-861 1.25 mg/kg b.w./day
Description: as §1
Blood samples were collected from the Swiss albino mice 24 h after the last administration of the tested compounds or vehicle. To determine glucose, cholesterol and triglyceride levels in the plasma, standard enzymatic spectrophotometric tests (Biomaxima S.A. Lublin, Poland) were used. In the presence of appropriate enzyme, the substrate was converted to a colored compound. Absorbance was measured at a wavelength of 500 nm. To determine alanine aminotransferase (ALAT) or γ-glutamyl transpeptidase (γ-GTP) activities in the plasma, the standard enzymatic spectrophotometric test (Biomaxima S.A.) was used. Absorbance was measured at 340 nm (ALAT) or 405 nm (γ-GTP).

[4] = 18-h monitoring, AZ-853 0.625, AZ-861 1.25 mg/kg b.w./day

Cn1c(=O)c2c(nc3n(CCCCN4CCN(c5cccc(C(F)(F)F)c5)CC4)ccn23)n(C)c1=O [AZ-861, 1,3-dimethyl-8-(4-(4-(3-(trifluoromethyl)phenyl)piperazin-1-yl)butyl)-1H-imidazo[2,1-f]purine-2,4(3H,8H)-dione]
spontaneous activity after the 1st administration vs. control (mice [1]; [4]): No effect on locomotor activity | spontaneous activity after the 15th administration vs. control (mice [1]; [4]): significant decrease in spontaneous activity | Mean counts, spontaneous activity (mice [1]; after 1st administration, 1 h after administration): 223.1 counts | Mean counts, spontaneous activity (mice [1]; after 1st administration, 2 h after administration): 212.3 counts | Mean counts, spontaneous activity (mice [1]; after 1st administration, 3 h after administration): 190.0 counts | Mean counts, spontaneous activity (mice [1]; after 1st administration, 4 h after administration): 112.6 counts | Mean counts, spontaneous activity (mice [1]; after 1st administration, 5 h after administration): 125.9 counts | Mean counts, spontaneous activity (mice [1]; after 1st administration, 6 h after administration): 188.8 counts | Mean counts, spontaneous activity (mice [1]; after 1st administration, 7 h after administration): 229.5 counts | Mean counts, spontaneous activity (mice [1]; after 1st administration, 8 h after administration): 268.3 counts | Mean counts, spontaneous activity (mice [1]; after 1st administration, 9 h after administration): 274.6 counts | Mean counts, spontaneous activity (mice [1]; after 1st administration, 10 h after administration): 298.0 counts | Mean counts, spontaneous activity (mice [1]; after 1st administration, 11 h after administration): 311.6 counts | Mean counts, spontaneous activity (mice [1]; after 1st administration, 12 h after administration): 274.9 counts | Mean counts, spontaneous activity (mice [1]; after 1st administration, 13 h after administration): 290.8 counts | Mean counts, spontaneous activity (mice [1]; after 1st administration, 14 h after administration): 267.1 counts | Mean counts, spontaneous activity (mice [1]; after 1st administration, 15 h after administration): 232.3 counts | Mean counts, spontaneous activity (mice [1]; after 1st administration, 16 h after administration): 255.3 counts | Mean counts, spontaneous activity (mice [1]; after 1st administration, 17 h after administration): 318.8 counts | Mean counts, spontaneous activity (mice [1]; after 1st administration, 18 h after administration): 275.9 counts | Mean counts, spontaneous activity (mice [1]; after 15th administration, 1 h after administration): 228.5 counts | Mean counts, spontaneous activity (mice [1]; after 15th administration, 2 h after administration): 121.0 counts | Mean counts, spontaneous activity (mice [1]; after 15th administration, 3 h after administration): 91.6 counts | Mean counts, spontaneous activity (mice [1]; after 15th administration, 4 h after administration): 149.1 counts | Mean counts, spontaneous activity (mice [1]; after 15th administration, 5 h after administration): 154.4 counts | Mean counts, spontaneous activity (mice [1]; after 15th administration, 6 h after administration): 159.0 counts | Mean counts, spontaneous activity (mice [1]; after 15th administration, 7 h after administration): 185.0 counts | Mean counts, spontaneous activity (mice [1]; after 15th administration, 8 h after administration): 140.4 counts | Mean counts, spontaneous activity (mice [1]; after 15th administration, 9 h after administration): 144.0 counts | Mean counts, spontaneous activity (mice [1]; after 15th administration, 10 h after administration): 195.7 counts | Mean counts, spontaneous activity (mice [1]; after 15th administration, 11 h after administration): 177.3 counts | Mean counts, spontaneous activity (mice [1]; after 15th administration, 12 h after administration): 236.1 counts | Mean counts, spontaneous activity (mice [1]; after 15th administration, 13 h after administration): 169.1 counts | Mean counts, spontaneous activity (mice [1]; after 15th administration, 14 h after administration): 242.3 counts | Mean counts, spontaneous activity (mice [1]; after 15th administration, 15 h after administration): 172.6 counts | Mean counts, spontaneous activity (mice [1]; after 15th administration, 16 h after administration): 218.9 counts | Mean counts, spontaneous activity (mice [1]; after 15th administration, 17 h after administration): 210.1 counts | Mean counts, spontaneous activity (mice [1]; after 15th administration, 18 h after administration): 244.6 counts | effect on spontaneous locomotor activity, acute administration (mice [2]; 4 min period identical to FST, AZ-853 0.625, 1.25, 2.5 mg/kg, AZ-861 1.25 mg/kg, WAY-100635 0.3 mg/kg alone or combined): did not change the behavior of the animals | Number of movements (mean) (mice [2]; acute, 1.25 mg/kg i.p., measured from 3 to 6 min): 167.3 | Number of movements (individual animals) (mice [2]; acute, 1.25 mg/kg, 3 to 6 min): 185 and 251 and 120 and 156 and 217 and 91 and 151 | Number of movements (mean) (mice [2]; repeated, 1.25 mg/kg, 24 h after 12th administration, during 4 min): 513.9 | Number of movements (individual animals) (mice [2]; repeated, 1.25 mg/kg): 418 and 521 and 595 and 467 and 633 and 454 and 778 and 245 | increase of plasma γ-GTP activity [3]: did not change activity | plasma ALAT activity vs. control [3]: did not lead to significant changes in ALAT activity
